In patent publication US20110154529A1, “INDUCED CHROMOSOME DOUBLING IN PLANTS” (DOW AGROSCIENCES LLC, priority 2009, published 2011):
Where two headings read alike, the source gives them in different places.

What was measured:
[1] = tested on: haploid germinated maize seedlings
Source text: An exemplary cycloalkene, 1,2,3-Trimethoxy-4-((1S,6R)-6-nitro-cyclohex-3-enyl)-benzene, designated as compound 1 was used to determine double haploid efficiency, doubling rate by a coleoptile tip cutting, seedling soaking method. […] Data provided in Tables 1, 2 and 3 were generated using haploid seeds obtained through cross pollination of a maize line of interest with an inducer maize line.
The resulting maize seeds were sorted based on marker gene color.
Coleoptile tips in maize seedlings were cut and the seedlings were soaked in various chromosome doubling agents as shown in Table 1. Haploid maize seeds were germinated and the coleoptile tips were excised (1-2 mm). Seedlings that survived were transplanted and grown until tassels and silk formed. Plants that produced tassels and silk were self-pollinated. Seeds produced form the self-pollination were visually assessed for the marker to identify them as double haploid (dihaploid).

[2] = tested on: germinated haploid maize seedlings in soil; test: Chromosome doubling by foliar spray treatment at V1-V3 stage; type: in vivo
Procedure: Haploid maize seeds were planted in Sun Gro MetroMix® 306 planting mixture, which typically has a pH of 6.0 to 6.8 and an organic matter content of about 30 percent, in 72-well, plastic propagation flats (Dillen Products; Middlefield Ohio). When required to ensure good germination and healthy plants, a fungicide treatment and/or other chemical or physical treatment was applied. The plants were grown in a greenhouse with an approximate 15 hour photoperiod which was maintained at about 23-29° C. during the day and 22-28° C. during the night until they reached the V1-V3 growth stage. Nutrients and water were added on a regular basis and supplemental lighting was provided with overhead metal halide 1000-Watt lamps as necessary.
A weighed amount of compound 1, determined by the rate to be tested, was dissolved in 1.2 mL of dimethyl sulfoxide (DMSO) to obtain concentrated stock solutions. […] The concentrated stock solutions obtained were diluted with 10.8 mL of an aqueous mixture containing 1.25% v/v (volume/volume) Agri-dex Crop Oil Concentrate. Compound requirements are based upon a 12 mL application volume at a rate of 187 L/ha. Formulated compounds were applied to the plant material with an overhead Mandel track sprayer equipped with a 8002E nozzle calibrated to deliver 187 L/ha over an application area of 0.503 square meters at a spray height of 18 inches (43 cm) above the average plant canopy height. Control plants were sprayed in the same manner with the solvent blank.
The treated plants and control plants were placed in a greenhouse as described above and watered by sub-irrigation to prevent wash-off of the test compounds. Approximately 14 days after treatment, the treated plants were transplanted to individual pots containing Sun Gro MetroMix® 306. Plants that produced tassels and silk were then self-pollinated to obtain dihaploid seed.
Table 3 illustrates the results of doubling rate after spray treatment with the chemicals of interest. […] The spray treated plant tassels and silks were synchronized well and the plants shed more pollen.

haploid maize seedlings = test: Chromosome doubling by seedling soaking, plants transplanted into the field; type: in vivo
Procedure: The procedure listed in example 1 was utilized to treat maize seedlings that were subsequently transplanted into the field. Seedlings that survived the transplanting were grown to maturity. Plants that produced tassels and silk were self-pollinated. […] For the cycloalkene treatment, 25 μM and 100 μM concentrations of compound 1 was used.

rat = conditions: cited from earlier work
[3] = Acute mammalian toxicity LD50 (rat); conditions: in vivo
rabbit = test: Eye irritation; type: in vivo; conditions: dose of about 100 mg/animal
rats = test: Dermal toxicity on rats; type: in vivo, rat; conditions: rats at 200 mg/kg
[4] = seedling soak, rate 5 μM, TP = transplanted
[5] = seedling soak, rate 25 μM, TP = transplanted
[6] = seedling soak, rate 125 μM, TP = transplanted
[7] = seedling soak, rate cell empty in table, colchicine at 0.06% w/v

## CC(C)OC(=O)Nc1cccc(Cl)c1 [Chlorpropham, chlorpropham]
[1]; seedling soak, rate 5 μM
  % DR (doubling rate: No. plants with pollen and silk/No. of plants left * 100): 45.5%
  No. plants alive: 16
  No. plants dead: 48
  No. plants with pollen & silks: 5
[1]; [4]
  No. plants dead after TP: 0
[1]; seedling soak, rate 25 μM
  No. plants alive: 1
  No. plants dead: 63
[1]; [5]
  No. plants dead after TP: 0
[1]; seedling soak, rate 125 μM
  No. plants alive: 0
  No. plants dead: 64
[1]; [6]
  No. plants dead after TP: 0
[2]; spray, rate 70 g ai/ha
  # plants dead after treatment: 0
  # plants w/ pollen and silk: 9
  % DR (doubling rate): 40.9%
[2]; spray, rate 280 g ai/ha
  # plants dead after treatment: 1
  # plants w/ pollen and silk: 18
  % DR (doubling rate): 58.1%

## COc1cc2c(c(OC)c1OC)-c1ccc(OC)c(=O)cc1[C@@H](NC(C)=O)CC2 [Colchicine, colchicine]
[1]; seedling soak, colchicine treatment at 0.06% w/v
  mortality rate: 41.5%
[1]; [7]
  % DR (doubling rate: No. plants with pollen and silk/No. of plants left * 100): 53.3%
  No. plants alive: 38
  No. plants dead: 27
  No. plants dead after TP: 0
  No. plants with pollen & silks: 16
Haploid maize seedlings; 0.06% colchicine
  % haploid maize plants pollinated (doubling rate): 55.68%
Haploid maize seedlings; 0.06% w/v colchicine, of about 49 haploid plants pollinated
  plants that had doubled haploid ears: about 38
rat
  oral LD50 (rat): 5.89 mg/kg

## COc1ccc([C@@H]2CC=CC[C@H]2[N+](=O)[O-])c(OC)c1OC [Compound 1, 1,2,3-Trimethoxy-4-((1S,6R)-6-nitro-cyclohex-3-enyl)-benzene]
[1]; maize, in vivo, 5 μM
  No. plants alive: 56
  No. plants dead: 10
  No. plants dead after TP: 2
[1]; maize, in vivo, 25 μM
  No. plants alive: 46
  No. plants dead: 20
  No. plants dead after TP: 2
[1]; maize, in vivo, 125 μM
  No. plants alive: 29
  No. plants dead: 34
  No. plants dead after TP: 2
[1]; seedling soak, 5 μM (10/66*100)
  mortality rate: 15.1%
[1]; seedling soak, 25 μM
  mortality rate: 30.3%
[1]; seedling soak, rate 5 μM
  % DR (doubling rate: No. plants with pollen and silk/No. of plants left * 100): 53.3%
  No. plants with pollen & silks: 24
[1]; seedling soak, rate 5 μM, listed as compound 1
  % DR (doubling rate: No. plants with pollen and silk/No. of plants left * 100): about 53%
[1]; seedling soak, rate 25 μM
  % DR (doubling rate: No. plants with pollen and silk/No. of plants left * 100): 62.5%
  No. plants with pollen & silks: 20
[1]; seedling soak, rate 125 μM
  % DR (doubling rate: No. plants with pollen and silk/No. of plants left * 100): 76.5%
  No. plants with pollen & silks: 13
Haploid maize seedlings; 25 μM
  % DH pollination success: 90%
  % haploid maize plants pollinated (doubling rate): 67.79%
Haploid maize seedlings; 25 μM, out of 40 pollinated maize haploid plants
  plants that had doubled haploid ears: 36
Haploid maize seedlings; 100 μM
  % DH pollination success: 62.5%
  % haploid maize plants pollinated (doubling rate): 51.06%
Haploid maize seedlings; 100 μM, out of 24 pollinated haploid maize plants
  plants that had doubled haploid ears: 15
[2]; maize, in vivo
  # plants dead after treatment: 0
[2]; spray, rate 70 g ai/ha
  # plants w/ pollen and silk: 6
  % DR (doubling rate): 31.2%
[2]; spray, rate 280 g ai/ha
  # plants w/ pollen and silk: 12
  % DR (doubling rate): 46.2%
[3]
  LD50: ≥ 500 mg/kg
rabbit
  Eye irritation: time to resolution of corneal and iridal effects: ≤ 48 h
rabbit; at 24 hours
  Eye irritation: animals with corneal and iridal effects: 1 of 3 animals showed corneal and iridal effects
rats
  dermal toxicity: No dermal toxicity was observed

## C#CC(C)(C)NC(=O)c1cc(Cl)cc(Cl)c1 [Pronamide, pronamide]
[1]; seedling soak, rate 5 μM
  % DR (doubling rate: No. plants with pollen and silk/No. of plants left * 100): 44.5%
  No. plants alive: 41
  No. plants dead: 23
  No. plants with pollen & silks: 12
[1]; [4]
  No. plants dead after TP: 3
[1]; seedling soak, rate 25 μM
  No. plants alive: 13
  No. plants dead: 51
  No. plants with pollen & silks: 2
[1]; [5]
  No. plants dead after TP: 1
[1]; seedling soak, rate 125 μM
  No. plants alive: 2
  No. plants dead: 62
[1]; [6]
  No. plants dead after TP: 0
[2]; spray, rate 35 g ai/ha
  # plants dead after treatment: 0
  # plants w/ pollen and silk: 5
  % DR (doubling rate): 27.8%
[2]; spray, rate 140 g ai/ha
  # plants dead after treatment: 0
  # plants w/ pollen and silk: 3
  % DR (doubling rate): 16.7%
